Laboratory results published in ChEMBL document CHEMBL5625250, “Discovery of novel flavonoid-based CDK9 degraders for prostate cancer treatment via a PROTAC strategy” (Eur J Med Chem, 2023).
≈ marks a conversion by molar mass, not a printed value. Calls of active or inactive are those of the source. The rule behind the calls is not given here.

Experiments:
[1] = Solubility of the compound in water at pH 7.4 by shake flask method; format: physicochemical
CWR22R = assay: Antiproliferative activity against human 22Rv1 cells assessed as reduction in cell viability incubated for 72 hrs by SRB assay; format: functional, cell-based; details: 22Rv1, 72 h
[2] = Solubility of the compound in water at pH 6.0 by shake flask method; format: physicochemical
[3] = target: T1, Cyclin-dependent kinase 9 (Homo sapiens, UniProt P50750); assay: Inhibition of CDK9 (unknown origin) at 20 nM in presence of ATP by ADP-Glo kinase assay relative to control
[4] = target: T1, Cyclin-dependent kinase 9; assay: Inhibition of CDK9 (unknown origin) in presence of ATP by ADP-Glo kinase assay
[5] = target: T2, Protein cereblon/Cyclin-dependent kinase 9 (Homo sapiens, UniProt P50750+Q96SW2); assay: PROTAC activity at CRBN/CDK9 in human 22Rv1 cells assessed as reduction in cyclin T1 expression at 1.5 uM incubated for 24 hrs by Western blotting analysis; format: cell-based
[6] = target: T2, Protein cereblon/Cyclin-dependent kinase 9; assay: PROTAC activity at CRBN/CDK9 in human 22Rv1 cells assessed as degradation of CDK9 protein at 100 nM incubated for 12 hrs by Western blotting analysis; format: cell-based
[7] = target: T2, Protein cereblon/Cyclin-dependent kinase 9; assay: PROTAC activity at CRBN/CDK9 in human 22Rv1 cells assessed as degradation of CDK9 protein at 100 nM incubated for 12 hrs by Western blotting analysis relative to control; format: cell-based

T2 sequence (P50750 whole entry, looked up): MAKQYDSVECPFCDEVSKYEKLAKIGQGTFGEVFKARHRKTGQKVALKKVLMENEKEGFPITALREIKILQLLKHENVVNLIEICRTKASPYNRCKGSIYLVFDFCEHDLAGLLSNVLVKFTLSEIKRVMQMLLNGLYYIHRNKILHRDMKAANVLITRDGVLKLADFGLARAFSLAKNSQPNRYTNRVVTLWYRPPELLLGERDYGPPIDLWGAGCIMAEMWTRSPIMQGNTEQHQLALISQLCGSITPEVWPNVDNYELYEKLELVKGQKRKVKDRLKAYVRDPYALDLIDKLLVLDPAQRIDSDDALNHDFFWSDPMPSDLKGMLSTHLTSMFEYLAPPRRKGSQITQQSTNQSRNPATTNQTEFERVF
T2 sequence (Q96SW2 whole entry, looked up): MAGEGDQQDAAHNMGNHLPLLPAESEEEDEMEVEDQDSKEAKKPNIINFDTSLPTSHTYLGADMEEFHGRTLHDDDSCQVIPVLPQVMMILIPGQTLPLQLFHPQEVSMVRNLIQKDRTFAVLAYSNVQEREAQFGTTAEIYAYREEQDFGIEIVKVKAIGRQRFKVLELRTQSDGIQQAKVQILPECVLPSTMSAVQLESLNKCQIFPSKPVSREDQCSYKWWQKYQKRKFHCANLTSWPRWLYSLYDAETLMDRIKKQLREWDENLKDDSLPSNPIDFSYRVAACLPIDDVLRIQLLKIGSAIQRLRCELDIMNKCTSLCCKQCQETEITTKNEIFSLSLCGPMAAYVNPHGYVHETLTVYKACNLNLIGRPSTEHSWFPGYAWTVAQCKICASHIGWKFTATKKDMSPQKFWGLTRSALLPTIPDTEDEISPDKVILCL
T1 sequence (P50750 whole entry): as the sequence (P50750 whole entry, looked up) above

In the case of `COc1cc(O)c2c(=O)cc(-c3ccc(N4CCN(CCC5CCN(c6ccc7c(c6)C(=O)N(C6CCC(=O)NC6=O)C7=O)CC5)CC4)cc3)oc2c1C1=CCN(C)CC1` (stereo not drawn), the solubility thermodynamic [1] is reported as 45 µg/mL (≈ 55.2 µM), the IC50 (CWR22R) is reported as 350 nM and the solubility thermodynamic [2] is reported as 117 µg/mL (≈ 144 µM). It also gave an inhibition [3] of 75%.

With `COc1cc(O)c2c(=O)cc(-c3ccc(N4CCN(C)CC4)cc3)oc2c1C1=CCN(C)CC1` the IC50 (CWR22R) was 1250 nM, the IC50 [4] was 66.7 nM and the inhibition [3] was 69.2%. For the same compound, the Activity [5] was “inactive”.

`CN1CC[C@H](c2c(O)cc(O)c3c(=O)cc(-c4ccccc4Cl)oc23)[C@H](O)C1` [ALVOCIDIB] showed an IC50 (CWR22R) of 240 nM.

In the case of `COc1cc(O)c2c(=O)cc(-c3ccc(N4CCN(C(=O)CCCOc5cccc6c5C(=O)N(C5CCC(=O)NC5=O)C6=O)CC4)cc3)oc2c1C1=CCN(C)CC1` (stereo not drawn), the solubility thermodynamic [1] is reported as < 10 µg/mL, the Activity [6] is reported as “Active” and the IC50 (CWR22R) is reported as 410 nM. For the same compound, the solubility thermodynamic [2] was < 10 µg/mL and the inhibition [3] was 79%.

In the case of `COc1cc(O)c2c(=O)cc(-c3ccc(N4CCN(C(=O)CCCCCOc5cccc6c5C(=O)N(C5CCC(=O)NC5=O)C6=O)CC4)cc3)oc2c1C1=CCN(C)CC1` (stereo not drawn), the solubility thermodynamic [1] is reported as < 10 µg/mL, the IC50 (CWR22R) is reported as 650 nM and the solubility thermodynamic [2] is reported as < 10 µg/mL. It also gave an inhibition [3] of 69.9%.

With `COc1cc(O)c2c(=O)cc(-c3ccc(N4CCN(C(=O)CNc5cccc6c5C(=O)N(C5CCC(=O)NC5=O)C6=O)CC4)cc3)oc2c1C1=CCN(C)CC1` (stereo not drawn) the solubility thermodynamic [1] was 21 µg/mL (≈ 27.6 µM), the IC50 (CWR22R) was 100 nM and the Activity [7] was 80%. The solubility thermodynamic [2] was < 10 µg/mL and the inhibition [3] was 84.1%.
